# Laboratory results published in PubChem BioAssay AID1963434 (Molecular Pharmacology Branch, DTP, NCI, 2024).
# Tested on: 755483-174-R-J1-PDC complex spheroid growth, percent test/control
# Assay: Anticancer human tumor 755483-174-R-J1-PDC patient-derived rhabdomyosarcoma cell line growth inhibition [Asc]
# Details: for IC50: curve of first compound; for viability, T/C: stronger effect = lower value
# Method in brief: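 Concentration series start at each agent's clinical Cmax, or at 10 microM when none is established, and drop in half-log steps; agents are applied alone or together to complex spheroids built with HUVEC and hMSC.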
# [1] = second compound 0.03 µM, first compound 0.0316 µM
# [2] = second compound 0.03 µM, first compound 0.1 µM
# [3] = second compound 0.03 µM, first compound 0.316 µM
# [4] = second compound 0.03 µM, first compound 1 µM
# [5] = second compound 0.03 µM, first compound 3.16 µM
# [6] = second compound 0.03 µM, first compound 10 µM
# [7] = second compound 0.0949 µM, first compound 0.0316 µM
# [8] = second compound 0.0949 µM, first compound 0.1 µM
# [9] = second compound 0.0949 µM, first compound 0.316 µM
# [10] = second compound 0.0949 µM, first compound 1 µM
# [11] = second compound 0.0949 µM, first compound 3.16 µM
# [12] = second compound 0.0949 µM, first compound 10 µM
# [13] = second compound 0.3 µM, first compound 0.0316 µM
# [14] = second compound 0.3 µM, first compound 0.1 µM
# [15] = second compound 0.3 µM, first compound 0.316 µM
# [16] = second compound 0.3 µM, first compound 1 µM
# [17] = second compound 0.3 µM, first compound 3.16 µM
# [18] = second compound 0.3 µM, first compound 10 µM
# [19] = second compound 0.949 µM, first compound 0.0316 µM
# [20] = second compound 0.949 µM, first compound 0.1 µM
# [21] = second compound 0.949 µM, first compound 0.316 µM
# [22] = second compound 0.949 µM, first compound 1 µM
# [23] = second compound 0.949 µM, first compound 3.16 µM
# [24] = second compound 0.949 µM, first compound 10 µM
# [25] = second compound 3 µM, first compound 0.0316 µM
# [26] = second compound 3 µM, first compound 0.1 µM
# [27] = second compound 3 µM, first compound 0.316 µM
# [28] = second compound 3 µM, first compound 1 µM
# [29] = second compound 3 µM, first compound 3.16 µM
# [30] = second compound 3 µM, first compound 10 µM
# [31] = second compound 0.03 µM, first compound 0.00316 µM
# [32] = second compound 0.03 µM, first compound 0.01 µM
# [33] = second compound 0.0949 µM, first compound 0.00316 µM
# [34] = second compound 0.0949 µM, first compound 0.01 µM
# [35] = second compound 0.3 µM, first compound 0.00316 µM
# [36] = second compound 0.3 µM, first compound 0.01 µM
# [37] = second compound 0.949 µM, first compound 0.00316 µM
# [38] = second compound 0.949 µM, first compound 0.01 µM
# [39] = second compound 3 µM, first compound 0.00316 µM
# [40] = second compound 3 µM, first compound 0.01 µM
# 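Also: spheroids exposed to compounds for seven days before readout.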
Compound,IC50 (second compound 0.03 µM),IC50 (second compound 0.0949 µM),IC50 (second compound 0.3 µM),IC50 (second compound 0.949 µM),IC50 (second compound 3 µM),"viability, T/C [1]","viability, T/C [2]","viability, T/C [3]","viability, T/C [4]","viability, T/C [7]","viability, T/C [8]","viability, T/C [9]","viability, T/C [10]","viability, T/C [13]","viability, T/C [14]","viability, T/C [15]","viability, T/C [19]","viability, T/C [20]","viability, T/C [25]","viability, T/C [26]",further results
C=C(F)C(=O)N1CCN(c2nc(OCC3CCCN3C)nc3c2CCN(c2cccc4cccc(Cl)c24)C3)CC1CC#N (stereo not given) + CCN1C(C(=O)NC23CCC(C(=O)O)(CC2)CC3)C(c2cccc(Cl)c2F)C2(C(=O)Nc3cc(Cl)ccc32)C12CCCCC2,2170 nM,1660 nM,1430 nM,1890 nM,1600 nM,81%,120%,91.5%,89.4%,91.9%,93.2%,83.1%,66.6%,82.9%,106%,87%,88.4%,97.3%,79.5%,81.7%,"viability, T/C [5]: 30.9%; viability, T/C [6]: 0.12%; viability, T/C [11]: 29.6%; viability, T/C [12]: 0.13%; viability, T/C [16]: 56.6%; viability, T/C [17]: 28.5%; viability, T/C [18]: 0.51%; viability, T/C [21]: 89.2%; viability, T/C [22]: 69.3%; viability, T/C [23]: 33.8%; viability, T/C [24]: 0.31%; viability, T/C [27]: 86.4%; viability, T/C [28]: 65.7%; viability, T/C [29]: 25.3%; viability, T/C [30]: 0.24%"
C=CC(=O)N1CCN(c2nc(=O)n(-c3c(C)ccnc3C(C)C)c3nc(-c4c(O)cccc4F)c(F)cc23)C(C)C1 (stereo not given) + CCN1C(C(=O)NC23CCC(C(=O)O)(CC2)CC3)C(c2cccc(Cl)c2F)C2(C(=O)Nc3cc(Cl)ccc32)C12CCCCC2,> 10000 nM,> 10000 nM,> 10000 nM,> 10000 nM,> 10000 nM,92.4%,83.7%,99.7%,88.7%,88.6%,103%,82.4%,97.8%,80.8%,80.6%,85.3%,89.1%,82.7%,84.4%,107%,"viability, T/C [5]: 99.1%; viability, T/C [6]: 65.7%; viability, T/C [11]: 98.4%; viability, T/C [12]: 78%; viability, T/C [16]: 103%; viability, T/C [17]: 125%; viability, T/C [18]: 88.8%; viability, T/C [21]: 115%; viability, T/C [22]: 100%; viability, T/C [23]: 107%; viability, T/C [24]: 83.2%; viability, T/C [27]: 94.5%; viability, T/C [28]: 81.2%; viability, T/C [29]: 76.7%; viability, T/C [30]: 63.4%"
COc1c(OCCCN2CCOCC2)ccc2c3n(c(=NC(=O)c4cnc(N)nc4)nc12)CCN3 + CCN1C(C(=O)NC23CCC(C(=O)O)(CC2)CC3)C(c2cccc(Cl)c2F)C2(C(=O)Nc3cc(Cl)ccc32)C12CCCCC2,31.3 nM,13.7 nM,31.2 nM,26.2 nM,41.7 nM,49.1%,19.2%,8.52%,6.46%,48.5%,25.9%,25.9%,7.18%,46.3%,22.7%,12.7%,45.9%,30.7%,59.9%,21.3%,"viability, T/C [31]: 70.7%; viability, T/C [32]: 70.5%; viability, T/C [33]: 75.5%; viability, T/C [34]: 39.5%; viability, T/C [35]: 82.1%; viability, T/C [36]: 89.5%; viability, T/C [16]: 5.77%; viability, T/C [37]: 75.7%; viability, T/C [38]: 64.9%; viability, T/C [21]: 12.1%; viability, T/C [22]: 9.33%; viability, T/C [39]: 53.2%; viability, T/C [40]: 64.1%; viability, T/C [27]: 13.8%; viability, T/C [28]: 7.35%"
NC1CCC(NC2CC2c2ccccc2)CC1 (stereo not given) + CCN1C(C(=O)NC23CCC(C(=O)O)(CC2)CC3)C(c2cccc(Cl)c2F)C2(C(=O)Nc3cc(Cl)ccc32)C12CCCCC2,> 100 nM,> 100 nM,> 100 nM,> 100 nM,> 100 nM,87%,65.3%,–,–,85.1%,68.8%,–,–,95.1%,112%,–,78.3%,88.5%,86.6%,88.5%,"viability, T/C (second compound 0.03 µM, first compound 0.000316 µM): 93.2%; viability, T/C (second compound 0.03 µM, first compound 0.001 µM): 67.1%; viability, T/C [31]: 129%; viability, T/C [32]: 77.7%; viability, T/C (second compound 0.0949 µM, first compound 0.000316 µM): 90%; viability, T/C (second compound 0.0949 µM, first compound 0.001 µM): 100%; viability, T/C [33]: 93.2%; viability, T/C [34]: 96.4%; viability, T/C (second compound 0.3 µM, first compound 0.000316 µM): 110%; viability, T/C (second compound 0.3 µM, first compound 0.001 µM): 105%; viability, T/C [35]: 112%; viability, T/C [36]: 87.3%; viability, T/C (second compound 0.949 µM, first compound 0.000316 µM): 108%; viability, T/C (second compound 0.949 µM, first compound 0.001 µM): 103%; viability, T/C [37]: 92%; viability, T/C [38]: 98.5%; viability, T/C (second compound 3 µM, first compound 0.000316 µM): 92.2%; viability, T/C (second compound 3 µM, first compound 0.001 µM): 94%; viability, T/C [39]: 90.2%; viability, T/C [40]: 61.6%"
